Type in all cases: in vivo
Experiment [1] concerns Pseudoperonospora cubensis. The experiment can be described thus: Cucumber downy mildew (PSPECU), disease control on cucumber seedlings. Conditions: 24 h, 1DP (1 Day Protectant) test at 100 ppm. As to the method:
Technical grades of materials were dissolved in acetone, which were then mixed with nine volumes of water containing 110 ppm Triton X-100. The fungicide solutions were applied onto wheat seedlings using an automated booth sprayer to run-off. All sprayed plants were allowed to air dry prior to further handling. All fungicides were evaluated using the aforementioned method for their activity vs. all target diseases, unless stated otherwise. Wheat leaf blotch and brown rust activity were also evaluated using track spray applications, in which case the fungicides were formulated as EC formulations, containing 0.1% Trycol 5941 in the spray solutions. Cucumber seedlings (variety Bush Pickle) were grown in soil-less Metro mix, with one plant per pot, and used in the test when 12 to 14 days old. Plants were inoculated with a spore suspension 24 hr following fungicide treatments. Test plants were inoculated with an aqueous spore suspension of Pseudoperonospora cubensis 24 hr after fungicide treatments. After inoculation the plants were kept in a dew room at 22° C. with 100% relative humidity for 24 hr to permit spores to germinate and infect the leaf. The plants were then transferred to a greenhouse set at 20° C. until disease was fully expressed. Fungicide formulation, application and disease assessment on the sprayed leaves followed the procedures as described in the Example A.

The subject of experiment [2] is Parastagonospora nodorum. In words: Wheat glume blotch (LEPTNO), disease control on wheat seedlings. As to conditions: 1DP test at 100 ppm, read-out: LEPTNO disease control rating. As to the method:
Technical grades of materials were dissolved in acetone, which were then mixed with nine volumes of water containing 110 ppm Triton X-100. The fungicide solutions were applied onto wheat seedlings using an automated booth sprayer to run-off. All sprayed plants were allowed to air dry prior to further handling. All fungicides were evaluated using the aforementioned method for their activity vs. all target diseases, unless stated otherwise. Wheat leaf blotch and brown rust activity were also evaluated using track spray applications, in which case the fungicides were formulated as EC formulations, containing 0.1% Trycol 5941 in the spray solutions. Wheat plants (variety Yuma) were grown from seed in a greenhouse in 50% mineral soil/50% soil-less Metro mix until the first leaf was fully emerged, with 7-10 seedlings per pot. These plants were inoculated with an aqueous spore suspension of Parastagonospora nodorum 24 hr after fungicide treatments. After inoculation the plants were kept in 100% relative humidity (one day in a dark dew chamber followed by two days in a lighted dew chamber at 20° C.) to permit spores to germinate and infect the leaf. The plants were then transferred to a greenhouse set at 20° C. for disease to develop. Fungicide formulation, application and disease assessment followed the procedures as described in the Example A.

Experiment [3] has as its system Puccinia triticina. In words: Wheat brown rust (PUCCRT), disease control on wheat seedlings. Conditions: low volume application at 121.5 g/H. In outline:
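Compounds in acetone, diluted with nine volumes of water containing 110 ppm Triton X-100, sprayed to run-off on first-leaf Yuma wheat seedlings; track-spray tests used EC formulations with 0.1% Trycol 5941. Puccinia triticina spores applied before or after treatment. Overnight dark dew room at 22° C, 100% humidity, then greenhouse at 24° C.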

The test system of experiment [4] is Phakopsora pachyrhizi. The experiment can be described thus: Asian soybean rust (PHAKPA), disease control on soybean seedlings. As to conditions: High volume application at 25 ppm. In outline: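 Two-week-old Williams 82 soybean seedlings were sprayed to run-off with compound in acetone/water (1:9) containing 0.011% Tween 20. Inoculation was 3 days before (curative) or 1 day after (protectant) treatment, followed by 24 h dark dew at 22 °C, 100% RH, then 23 °C; disease severity scored on sprayed leaves.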

Experiment [5] relates to Zymoseptoria tritici. The experiment can be described thus: Leaf blotch of wheat (SEPTTR), disease control on wheat seedlings. As to conditions: low volume application at 121.5 g/H. In short, it runs like this: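 Z. tritici spores were inoculated onto wheat seedlings (Yuma, first leaf emerged) either before or after treatment. Treatment was an automated spray to run-off of acetone/Triton X-100 water solutions, or a track spray of EC formulations with 0.1% Trycol 5941. Plants were held in dew chambers at 20 °C and then a greenhouse at 20 °C. First-leaf severity (0–100%) was converted to percent control against untreated plants.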

Where [6] appears, read: 24 h, 1 Day Protectant, read-out: PHAKPA 1DP disease control rating.
Where [7] appears, read: 72 h, 3 Day Curative, read-out: PHAKPA 3DC disease control rating.
The mark [8] stands for this setting: 24 h, 1 Day Protectant, read-out: PUCCRT disease control, 1DP, LV activity.
The mark [9] stands for this setting: 72 h, 3 Day Curative, read-out: PUCCRT disease control, 3DC, LV activity.
Where [10] appears, read: 24 h, 1 Day Protectant, read-out: SEPTTR disease control, 1DP, LV activity.
Where [11] appears, read: 72 h, 3 Day Curative, read-out: SEPTTR disease control, 3DC, LV activity.

Where two headings read alike, the source gives them in different places.

For `COc1ccnc(C(=O)N[C@@H](C)C(=O)O[C@@H](C)[C@H](c2ccc(F)cc2C)C(C)C)c1OC(=O)OC(C)C` [Compound 373], the pest or weed control at 100 ppm in experiment [1] was < 80%; in experiment [2] it was > 80%. Moreover, the pest or weed control at 121.5 g/ha is > 80% in experiment [3] (24 h, 1 Day Protectant, wheat brown rust, read-out: PUCCRT 1DP disease control, LV activity); < 80% in experiment [3] (72 h, 3 Day Curative, wheat brown rust, read-out: PUCCRT 3DC disease control, LV activity); > 80% in experiment [5] (24 h, 1 Day Protectant, wheat leaf blotch, read-out: SEPTTR 1DP disease control, LV activity); > 80% in experiment [5] (72 h, 3 Day Curative, wheat leaf blotch, read-out: SEPTTR 3DC disease control, LV activity). The pest or weed control at 25 ppm in experiment [4] (setting [6]) and in experiment [4] (setting [7]) was > 80% each time.
`COc1ccnc(C(=O)N[C@@H](C)C(=O)O[C@@H](C)[C@H](c2cccc(C)c2C)C(C)C)c1OC(C)=O` [Compound 363]: the pest or weed control at 100 ppm in experiment [1] is < 0%; in experiment [2], < 80%. In addition, the pest or weed control at 121.5 g/ha in experiment [3] (setting [8]) was > 80%; in experiment [3] (setting [9]), > 80%; in experiment [5] (setting [10]) it was < 80%; in experiment [5] (setting [11]) it was < 80%. For the same molecule, the pest or weed control at 25 ppm in experiment [4] (setting [6]) and in experiment [4] (setting [7]) was > 80% throughout.
`COCCC(=O)Oc1c(OC)ccnc1C(=O)N[C@@H](C)C(=O)O[C@@H](C)[C@H](c1ccc(F)cc1C)C(C)C` [Compound 220]: the figures for the pest or weed control at 100 ppm in experiment [1] and in experiment [2] were < 0% and > 80%, respectively. Besides, the pest or weed control at 121.5 g/ha in experiment [3] (setting [8]), in experiment [3] (setting [9]), in experiment [5] (setting [10]) and in experiment [5] (setting [11]) was > 80% throughout. Besides, the pest or weed control at 25 ppm in experiment [4] (setting [6]) and in experiment [4] (setting [7]) was > 80% in each case.
As for `COc1ccnc(C(=O)N[C@@H](C)C(=O)O[C@@H](C)[C@H](c2ccc(F)cc2C)C(C)C)c1OC(=O)C(C)C` [Compound 216], the pest or weed control at 100 ppm is < 80% in experiment [1] and > 80% in experiment [2]. In addition, the pest or weed control at 121.5 g/ha in experiment [3] (setting [8]), in experiment [3] (setting [9]), in experiment [5] (setting [10]) and in experiment [5] (setting [11]) was > 80% throughout. Besides, the pest or weed control at 25 ppm in experiment [4] (setting [6]) and in experiment [4] (setting [7]) was > 80% in each case.
With `COc1ccnc(C(=O)N[C@@H](C)C(=O)O[C@@H](C)[C@H](c2cccc(F)c2C)C(C)C)c1OC(C)=O` [Compound 359], the pest or weed control at 100 ppm in experiment [1] is < 80%; in experiment [2], > 80%. Also, the pest or weed control at 121.5 g/ha in experiment [3] (setting [8]) was > 80%; in experiment [3] (setting [9]) it was > 80%; in experiment [5] (setting [10]), < 80%; in experiment [5] (setting [11]), > 80%. The pest or weed control at 25 ppm in experiment [4] (setting [6]) and in experiment [4] (setting [7]) was > 80% each time.
As for `CCC(CC)[C@@H](c1ccc(F)cc1C)[C@H](C)OC(=O)[C@H](C)NC(=O)c1nccc(OC)c1OC(C)=O` [Compound 187], the figures for the pest or weed control at 100 ppm in experiment [1] and in experiment [2] were < 0% and < 80%, respectively. The pest or weed control at 121.5 g/ha was > 80% in experiment [3] (setting [8]), < 80% in experiment [3] (setting [9]), > 80% in experiment [5] (setting [10]) and > 80% in experiment [5] (setting [11]). The pest or weed control at 25 ppm in experiment [4] (setting [6]) was > 80%; in experiment [4] (setting [7]), < 80%.
